Source: article PMC10025090 (iScience, 2023)

Experiments:
H2-Kd [1] = target: T1, H2-Kd (Mus musculus, UniProt P01902); details: result in words; cited from earlier work
H2-Kd [2] = target: T1, H2-Kd; assay: In vitro pMHC binding assay; details: refolding with 10 μM peptide, 4°C, 72 hours; ELISA; result in words

T1 sequence (P01902 22-296 limits assumed): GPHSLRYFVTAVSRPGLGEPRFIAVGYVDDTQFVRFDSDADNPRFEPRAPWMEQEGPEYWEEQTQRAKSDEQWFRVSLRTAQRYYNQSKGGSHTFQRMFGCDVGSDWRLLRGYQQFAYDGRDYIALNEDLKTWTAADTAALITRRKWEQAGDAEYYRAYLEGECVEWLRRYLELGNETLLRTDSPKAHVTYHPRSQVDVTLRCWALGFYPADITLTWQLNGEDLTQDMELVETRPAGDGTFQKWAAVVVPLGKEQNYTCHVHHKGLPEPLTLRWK
T1 sequence (P61769 21-119 partner): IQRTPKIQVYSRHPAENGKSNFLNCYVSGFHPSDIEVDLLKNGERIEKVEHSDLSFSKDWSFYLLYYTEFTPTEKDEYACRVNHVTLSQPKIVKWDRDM

YIRPFETKVK
In silico-predicted MHC binding (H2-Kd [1]): poor in silico-predicted MHC binder | In vitro binding affinity to H2-Kd (H2-Kd [2]): significantly high
